Legend:
[1] = system: K562 CRISPRi cells; test: Perturb-seq pooled growth measurement (sgRNA counts, growth phenotype γ, relative activity); assay type: cell-based, human; conditions: for gamma_day5 / gamma_day10: pooled growth phenotype γ of the Perturb-seq sgRNA; for gamma_day5: day 5, K562 CRISPRi cells; for gamma_day10: day 10, K562 CRISPRi cells; for relative_activity_day5: γ relative to perfectly matched sgRNA (_00) of the same gene, day 5
Summary of the method: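 sgRNA abundance was sequenced from genomic DNA of the same transduced population sampled on days two, seven and twelve. Phenotype γ compares normalized day seven and twelve counts with day two. Day-seven values (five days of growth) define relative sgRNA activity.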

[2] = system: K562 CRISPRi cells; test: as above; assay type: cell-based, human; conditions: γ relative to perfectly matched sgRNA (_00) of the same gene, day 10

## CDC23_ −_137548987.23-P1P2_11 (guide GACAGCCACCGGGACCACGG; listed as DNA, chemistry not fully specified)
[1]
  gamma_day5: −0.2745
  gamma_day10: −0.2018
  relative_activity_day5: 0.2334
[2]
  relative_activity_day10: 0.3065

## POLR2H_ + _184081251.23-P1P2_07 (guide GGGGCCACGAGTGCAGCAGA; listed as DNA, chemistry not fully specified)
[1]
  gamma_day5: −0.1894
  gamma_day10: −0.1426
  relative_activity_day5: 0.1648
[2]
  relative_activity_day10: 0.223

## HSPE1_ + _198365089.23-P1P2_03 (guide GGTGACTCGCAGTCCGGCCC; listed as DNA, chemistry not fully specified)
[1]
  gamma_day5: −0.6427
  gamma_day10: −0.465
  relative_activity_day5: 0.9158
[2]
  relative_activity_day10: 0.8198

## POLR1D_ + _28196016.23-P1_03 (guide GGTAAGCAAGGACCGACCGA; listed as DNA, chemistry not fully specified)
[1]
  gamma_day5: −0.8471
  gamma_day10: −0.6833
  relative_activity_day5: 1.116
[2]
  relative_activity_day10: 1.1

## BCR_ + _23523092.23-P1P2_15 (guide GCGCGCGGGGCCCGTCGCAG; listed as DNA, chemistry not fully specified)
[1]
  gamma_day5: −0.2314
  gamma_day10: −0.1773
  relative_activity_day5: 0.2747
[2]
  relative_activity_day10: 0.3498

## ALDOA_ + _30077139.23-P1P2_00 (guide GGTCACCAGGACCCCTTCTG; listed as DNA, chemistry not fully specified)
[1]
  gamma_day5: −0.4127
  gamma_day10: −0.3665
  relative_activity_day5: 1
[2]
  relative_activity_day10: 1

## RPS14_ + _149829238.23-P1P2_00 (guide GAGGCCCGGGCGCGACAATC; listed as DNA, chemistry not fully specified)
[1]
  gamma_day5: −0.7908
  gamma_day10: −0.4995
  relative_activity_day5: 1
[2]
  relative_activity_day10: 1

## MTOR_ + _11322547.23-P1P2_05 (guide GGGCAGGGGGCTTGAAGCGG; listed as DNA, chemistry not fully specified)
[1]
  gamma_day5: −0.4313
  gamma_day10: −0.3448
  relative_activity_day5: 0.6275
[2]
  relative_activity_day10: 0.6137

## BCR_ + _23523092.23-P1P2_13 (guide GCGCGCGGGGCCCATCTCAG; listed as DNA, chemistry not fully specified)
[1]
  gamma_day5: −0.2183
  gamma_day10: −0.1615
  relative_activity_day5: 0.2591
[2]
  relative_activity_day10: 0.3187

## DBR1_ + _137893744.23-P1P2_08 (guide GTTTGCAGTAGTCTACACCC; listed as DNA, chemistry not fully specified)
[1]
  gamma_day5: −0.03529
  gamma_day10: −0.05261
  relative_activity_day5: 0.07746
[2]
  relative_activity_day10: 0.1075

## DUT_ + _48624411.23-P1P2_08 (guide GCGAGCGAGGAGGCCACCGG; listed as DNA, chemistry not fully specified)
[1]
  gamma_day5: −0.7725
  gamma_day10: −0.5862
  relative_activity_day5: 0.9742
[2]
  relative_activity_day10: 0.9077

## RAN_ + _131356438.23-P1P2_12 (guide GGCGGTCGCTGCGCTTAGGT; listed as DNA, chemistry not fully specified)
[1]
  gamma_day5: −0.04655
  gamma_day10: −0.03426
  relative_activity_day5: 0.2358
[2]
  relative_activity_day10: 0.2122

## HSPA9_ −_137911079.23-P1P2_02 (guide GGAGTTGCGCGATGCGGTGG; listed as DNA, chemistry not fully specified)
[1]
  gamma_day5: −0.6504
  gamma_day10: −0.4027
  relative_activity_day5: 0.6846
[2]
  relative_activity_day10: 0.6835

## BCR_ + _23523092.23-P1P2_04 (guide GCGCGCGGAGCCCGTCTCAG; listed as DNA, chemistry not fully specified)
[1]
  gamma_day5: −0.7401
  gamma_day10: −0.418
  relative_activity_day5: 0.8783
[2]
  relative_activity_day10: 0.8249

## DUT_ + _48624411.23-P1P2_00 (guide GCGAGCGAGGAGACCACCGG; listed as DNA, chemistry not fully specified)
[1]
  gamma_day5: −0.7929
  gamma_day10: −0.6457
  relative_activity_day5: 1
[2]
  relative_activity_day10: 1

## RPS15_ −_1438413.23-P1P2_00 (guide GACCAAAGCGATCTCTTCTG; listed as DNA, chemistry not fully specified)
[1]
  gamma_day5: −0.6212
  gamma_day10: −0.376
  relative_activity_day5: 1
[2]
  relative_activity_day10: 1

## COX11_ + _53045977.23-P1P2_04 (guide GGCTCTGGCGCCCTGGATGG; listed as DNA, chemistry not fully specified)
[1]
  gamma_day5: −0.1495
  gamma_day10: −0.2574
  relative_activity_day5: 0.8227
[2]
  relative_activity_day10: 0.8616

## COX11_ + _53045977.23-P1P2_10 (guide GGCTCTGGCGTCCCGGATGG; listed as DNA, chemistry not fully specified)
[1]
  gamma_day5: −0.1247
  gamma_day10: −0.1116
  relative_activity_day5: 0.6866
[2]
  relative_activity_day10: 0.3734

## HSPA5_ + _128003624.23-P1P2_01 (guide GAACCGAGTAGGCGACGGTG; listed as DNA, chemistry not fully specified)
[1]
  gamma_day5: −0.6373
  gamma_day10: −0.3748
  relative_activity_day5: 0.8525
[2]
  relative_activity_day10: 0.8774

## DUT_ + _48624411.23-P1P2_01 (guide GCCAGCGAGGAGACCACCGG; listed as DNA, chemistry not fully specified)
[1]
  gamma_day5: −0.7924
  gamma_day10: −0.6032
  relative_activity_day5: 0.9993
[2]
  relative_activity_day10: 0.9341

## ALDOA_ + _30077139.23-P1P2_07 (guide GGTCACCAGGCCCCCTTCTG; listed as DNA, chemistry not fully specified)
[1]
  gamma_day5: −0.3609
  gamma_day10: −0.3351
  relative_activity_day5: 0.8744
[2]
  relative_activity_day10: 0.9143

## GNB2L1_ + _180670873.23-P1P2_02 (guide GTGCAAGACGGCGGCAGGAG; listed as DNA, chemistry not fully specified)
[1]
  gamma_day5: −0.1438
  gamma_day10: −0.1273
  relative_activity_day5: 0.4945
[2]
  relative_activity_day10: 0.4167

## HSPA5_ + _128003624.23-P1P2_06 (guide GAGCCGAGTAGACGACGGTG; listed as DNA, chemistry not fully specified)
[1]
  gamma_day5: −0.1192
  gamma_day10: −0.09835
  relative_activity_day5: 0.1594
[2]
  relative_activity_day10: 0.2302

## RPL9_ + _39460483.23-P1P2_04 (guide GGATGTTTCAGTGCTCGTGG; listed as DNA, chemistry not fully specified)
[1]
  gamma_day5: −0.4171
  gamma_day10: −0.2942
  relative_activity_day5: 0.3747
[2]
  relative_activity_day10: 0.4392

## RPS14_ + _149829238.23-P1P2_01 (guide GAGACCCGGGCGCGACAATC; listed as DNA, chemistry not fully specified)
[1]
  gamma_day5: −0.7548
  gamma_day10: −0.4807
  relative_activity_day5: 0.9545
[2]
  relative_activity_day10: 0.9624

## RPS18_ + _33239917.23-P1P2_08 (guide GCTGCGATTCCGCTGGATCA; listed as DNA, chemistry not fully specified)
[1]
  gamma_day5: −0.2228
  gamma_day10: −0.1637
  relative_activity_day5: 0.2727
[2]
  relative_activity_day10: 0.3255

## RPS18_ + _33239917.23-P1P2_01 (guide GCTGCAATGCCGCTGGATCA; listed as DNA, chemistry not fully specified)
[1]
  gamma_day5: −0.5598
  gamma_day10: −0.3779
  relative_activity_day5: 0.6853
[2]
  relative_activity_day10: 0.7514

## HSPA9_ −_137911079.23-P1P2_04 (guide GGAGCTGCGCAATGCGGTGG; listed as DNA, chemistry not fully specified)
[1]
  gamma_day5: −0.2005
  gamma_day10: −0.1657
  relative_activity_day5: 0.211
[2]
  relative_activity_day10: 0.2813

## POLR2H_ + _184081251.23-P1P2_08 (guide GGGGCCACGCGAGCAGCAGA; listed as DNA, chemistry not fully specified)
[1]
  gamma_day5: −0.5208
  gamma_day10: −0.334
  relative_activity_day5: 0.4532
[2]
  relative_activity_day10: 0.5225

## HSPA5_ + _128003624.23-P1P2_00 (guide GAGCCGAGTAGGCGACGGTG; listed as DNA, chemistry not fully specified)
[1]
  gamma_day5: −0.7476
  gamma_day10: −0.4272
  relative_activity_day5: 1
[2]
  relative_activity_day10: 1

## MTOR_ + _11322547.23-P1P2_07 (guide GGGCAGGGGGTCTGAAGCGG; listed as DNA, chemistry not fully specified)
[1]
  gamma_day5: −0.5893
  gamma_day10: −0.4799
  relative_activity_day5: 0.8576
[2]
  relative_activity_day10: 0.8541

## GATA1_ −_48645022.23-P1P2_04 (guide GTGAGCTTACCACATCCCCA; listed as DNA, chemistry not fully specified)
[1]
  gamma_day5: −0.9313
  gamma_day10: −0.6032
  relative_activity_day5: 0.9673
[2]
  relative_activity_day10: 0.9804

## HSPE1_ + _198365089.23-P1P2_14 (guide GGAGACTCGCAGTCCTGCCC; listed as DNA, chemistry not fully specified)
[1]
  gamma_day5: −0.2088
  gamma_day10: −0.1965
  relative_activity_day5: 0.2975
[2]
  relative_activity_day10: 0.3465

Reference: patent US20220259593A1, “CONTROL OF MAMMALIAN GENE DOSAGE USING CRISPR” (The Regents of the University of California, priority 2019, published 2022)
